Measurements from patent US20060282906A1, “Non-transgenic rodent model of Alzheimer's disease” (priority 2005, published 2006).
Where no end group is shown, it is not given here.

Experiments:
Male Wistar rats [1] = test: Immunohistochemistry of rat brain sections, grading scale of staining size and intensity; assay type: in vivo; set-up: key to NKκB(p65) immunostaining signal / COX-2 immunostaining signal / GFAP immunostaining signal / OX-6 immunostaining signal / APP immunostaining signal / Tau-2 immunostaining signal / TNFα immunostaining signal / Cas-3 immunostaining signal: n.s.: no positive staining; +: moderate immunostaining signal; ++: strong immunostaining signal; +++: strongest immunostaining signal
Description: All rats were anesthetized using 40 mg/kg of pentobarbital (Somnotol; MTC Pharmaceuticals, Cambridge, Ontario) intraperitoneally. Body temperature was maintained at 37° C. Aβ(25-35) (50 nmol in 10 μL of saline) was injected bilaterally into the lateral ventricles. Aβ(25-35) was prepared according to established methods (Sigurdsson, et al. (1997) supra). Aβ(25-35) (50 nmol in 10 μL of saline at a rate of 1 μL/minute) was injected bilaterally into the lateral ventricles via a stainless-steel cannula (23-gauge; anterior/posterior −0.8, medial/lateral ±1.4, and dorsal/ventral −4.0 below dura). Two endothelin injections (6 pmol in 3 μL of saline), 1 mm apart, were made into the right striatum (Sigurdsson, et al. (1997) supra). Sham procedures involved all the surgical steps without injections of Aβ(25-35) or endothelin. After wound suture, all rats received 40 mg/kg of buprenorphine intramuscularly and were allowed to recover from surgery for 7 days.
Twenty-one days after surgery, all animals were euthanized via pentobarbital overdose and perfused transaortically first with saline followed by 4% formaldehyde (pH 7.4). The brains were removed and cryoprotected in 30% sucrose for 36 hours at 4° C. Coronal sections (30 pm) were cut using a cryostat.
Free-floating sections from rat brains (n=5 for each group) were treated with 0.03% hydrogen peroxide and blocked with 3 mL of horse or rabbit serum (VECTASTAIN® Elite, Vector Laboratories, Burlingame, Calif.). The following primary antibodies were diluted in filtered phosphate-buffered saline: APPa4 mouse monoclonal (Chemicon International Inc, Temecula, Calif.; 1:1000), GFAP mouse monoclonal (Sigma-Aldrich, St Louis, Mo.; 1:1000), OX-6 mouse monoclonal (Serotec, Inc., Raleigh, N.C.; 1:1000), Tau-2 mouse monoclonal (Sigma-Aldrich, St Louis, Mo.; 1:10000), NFκB(p65) goat polyclonal (Santa Cruz Biotechnologies, Santa Cruz, Calif.; 1:1000), IL-1β goat polyclonal (Santa Cruz Biotechnologies, Santa Cruz, Calif.; 1:1000), and TNF-α-M18 goat polyclonal (Santa Cruz Biotechnologies, Santa Cruz, Calif.; 1:1000). APP-, Tau-2-, GFAP-, and OX-6-stained sections were incubated with 3 mL of horse biotinylated anti-mouse secondary antibody and horse serum. NFκB(p65), IL-1β, and TNF-α-stained sections were incubated with 3 mL of biotinylated rabbit anti-goat secondary antibody and rabbit serum. Sections were then incubated in 3 mL of avidin-biotin complex followed by 0.05% diaminobenzidine. Sections were washed, air-dried, cleared in xylene, and cover-slipped. Brains to be compared were processed at the same time using the same solutions to reduce variability in immunostaining caused by separate processing.
Digital photographs were taken using a light microscope (Leitz Diaplan). An investigator was blinded to the identification of the rat sections while analysis was being performed. All immunohistochemical data that were compared was processed at the same time to reduce any variation caused by differences of intensity. A grading scale was based on both observable size and intensity of staining (n=5 for each group). Also, relative optical density measurements and numbers of stained cells or accumulations were measured in entire brain areas for quantitative analysis and statistically analyzed with ANOVA and Tukey post hoc test with a significance level of P<0.05.

Male Wistar rats [2] = test: Montoya staircase test; assay type: in vivo, rat
Description: (§1) Male Wistar rats (250 to 300 grams; Charles River, Montreal, Quebec) were divided into 4 groups: intracerebroventricular injections of Aβ(25-35) (BACHEM, Torrance, Calif.); endothelin injections into the right striatum; both Aβ(25-35) and striatal endothelin injections; and sham procedures. The Aβ(25-35) fragment was used to reduce the possibility of rapid coagulation and to allow diffusion of the peptide into the brain.
(§2) All rats were anesthetized using 40 mg/kg of pentobarbital (Somnotol; MTC Pharmaceuticals, Cambridge, Ontario) intraperitoneally. Body temperature was maintained at 37° C. Aβ(25-35) (50 nmol in 10 μL of saline) was injected bilaterally into the lateral ventricles. Aβ(25-35) was prepared according to established methods (Sigurdsson, et al. (1997) supra). Aβ(25-35) (50 nmol in 10 μL of saline at a rate of 1 μL/minute) was injected bilaterally into the lateral ventricles via a stainless-steel cannula (23-gauge; anterior/posterior −0.8, medial/lateral ±1.4, and dorsal/ventral −4.0 below dura). Two endothelin injections (6 pmol in 3 μL of saline), 1 mm apart, were made into the right striatum (Sigurdsson, et al. (1997) supra). Sham procedures involved all the surgical steps without injections of Aβ(25-35) or endothelin. After wound suture, all rats received […] of buprenorphine intramuscularly and were allowed to recover from surgery for 7 days.
For training (n=10 for each group), rats were placed into the Montoya staircase apparatus (Montoya, et al. (1991) supra) at the same time every day for 8 days (days −8 through −1) and were allowed to perform the test for 20 minutes. Rats were food-deprived for 1 day (day −9) before testing, as well as on day −8. On days −7 though −1, rats were fed 10 grams of their normal chow so that they maintained their body weight at ˜85%. Three NOYES LAB ANIMAL PRECISION FOOD PELLETS™ (Research Diets, Inc., New Brunswick, N.J.) were placed in each of the 14 wells (7 on each side). Pellets eaten were recorded from each well. Re-testing trials, which were performed 7 days after the surgical procedures (day 0), were performed for 8 days in the same way as the training trials (days 8 through 15).
Digital photographs were taken using a light microscope (Leitz Diaplan). An investigator was blinded to the identification of the rat sections while analysis was being performed. […] Also, relative optical density measurements and numbers of stained cells or accumulations were measured in entire brain areas for quantitative analysis and statistically analyzed with ANOVA and Tukey post hoc test with a significance level of P<0.05. […] The staircase data are expressed as the mean±SEM. […] Data are expressed as mean±SEM. […]

Male Wistar rats [3] = test: Congo Red histochemistry of rat brain sections; assay type: in vivo; conditions: Aβ: lesions in fornix, anterior hippocampus, CA1 hippocampus; endothelin: infarct
Description: as §1
as §2, with “days. […]” for “days.”

GSNKGAIIGLM [Aβ, β-amyloid fragment (25-35), 50 nmol injected bilaterally into the lateral ventricles of rats]
stained amyloid positive with Congo Red: Congo Red staining (Male Wistar rats [3])
n.s.: APP immunostaining signal (Male Wistar rats [1]; Striatum (right)) | COX-2 immunostaining signal (Male Wistar rats [1]; Striatum (right)) | Cas-3 immunostaining signal (Male Wistar rats [1]; Striatum (right)) | NKκB(p65) immunostaining signal (Male Wistar rats [1]; Striatum (right)) | OX-6 immunostaining signal (Male Wistar rats [1]; Striatum (right)) | TNFα immunostaining signal (Male Wistar rats [1]; Striatum (right))
+: APP immunostaining signal (Male Wistar rats [1]; Corpus Callosum) | COX-2 immunostaining signal (Male Wistar rats [1]; Corpus Callosum) | GFAP immunostaining signal (Male Wistar rats [1]; Corpus Callosum) | NKκB(p65) immunostaining signal (Male Wistar rats [1]; Corpus Callosum) | OX-6 immunostaining signal (Male Wistar rats [1]; Corpus Callosum) | TNFα immunostaining signal (Male Wistar rats [1]; Corpus Callosum) | Tau-2 immunostaining signal (Male Wistar rats [1]; Corpus Callosum) | APP immunostaining signal (Male Wistar rats [1]; Cortex) | COX-2 immunostaining signal (Male Wistar rats [1]; Cortex) | GFAP immunostaining signal (Male Wistar rats [1]; Cortex) | NKκB(p65) immunostaining signal (Male Wistar rats [1]; Cortex) | OX-6 immunostaining signal (Male Wistar rats [1]; Cortex) | TNFα immunostaining signal (Male Wistar rats [1]; Cortex) | Tau-2 immunostaining signal (Male Wistar rats [1]; Cortex) | APP immunostaining signal (Male Wistar rats [1]; Hippocampus) | COX-2 immunostaining signal (Male Wistar rats [1]; Hippocampus) | GFAP immunostaining signal (Male Wistar rats [1]; Hippocampus) | NKκB(p65) immunostaining signal (Male Wistar rats [1]; Hippocampus) | OX-6 immunostaining signal (Male Wistar rats [1]; Hippocampus) | Tau-2 immunostaining signal (Male Wistar rats [1]; Hippocampus) | APP immunostaining signal (Male Wistar rats [1]; Hypothalamus) | NKκB(p65) immunostaining signal (Male Wistar rats [1]; Hypothalamus) | TNFα immunostaining signal (Male Wistar rats [1]; Hypothalamus) | GFAP immunostaining signal (Male Wistar rats [1]; Striatum (right)) | OX-6 immunostaining signal (Male Wistar rats [1]; Thalamus (right)) | TNFα immunostaining signal (Male Wistar rats [1]; Thalamus (right))
73±8 % of pretreatment: Staircase test performance, ipsilateral paw (Male Wistar rats [2]; day 8 (first day of re-testing), mean±SEM)
significant deficit: total number of pellets eaten (Male Wistar rats [2]; day 8 compared with the last day of training, disappeared by day 9)
